# Active and inactive are the calls of the source. The rule behind the calls is not given here.
# Target: Ubiquitin carboxyl-terminal hydrolase 8 (Homo sapiens) (UniProt P40818)
# Assay: Ubiquitin-specific protease 8 inhibitors, concentration-effect, biochemical, validation of initial actives (AID 1645862);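 note: potency reflects inhibition of USP8 cleavage of a ubiquitin rhodamine substrate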
# Conditions: recombinant USP8 deubiquitinase activity assay
# Ubiquitin carboxyl-terminal hydrolase 8 (Homo sapiens), sequence (P40818 whole entry, looked up): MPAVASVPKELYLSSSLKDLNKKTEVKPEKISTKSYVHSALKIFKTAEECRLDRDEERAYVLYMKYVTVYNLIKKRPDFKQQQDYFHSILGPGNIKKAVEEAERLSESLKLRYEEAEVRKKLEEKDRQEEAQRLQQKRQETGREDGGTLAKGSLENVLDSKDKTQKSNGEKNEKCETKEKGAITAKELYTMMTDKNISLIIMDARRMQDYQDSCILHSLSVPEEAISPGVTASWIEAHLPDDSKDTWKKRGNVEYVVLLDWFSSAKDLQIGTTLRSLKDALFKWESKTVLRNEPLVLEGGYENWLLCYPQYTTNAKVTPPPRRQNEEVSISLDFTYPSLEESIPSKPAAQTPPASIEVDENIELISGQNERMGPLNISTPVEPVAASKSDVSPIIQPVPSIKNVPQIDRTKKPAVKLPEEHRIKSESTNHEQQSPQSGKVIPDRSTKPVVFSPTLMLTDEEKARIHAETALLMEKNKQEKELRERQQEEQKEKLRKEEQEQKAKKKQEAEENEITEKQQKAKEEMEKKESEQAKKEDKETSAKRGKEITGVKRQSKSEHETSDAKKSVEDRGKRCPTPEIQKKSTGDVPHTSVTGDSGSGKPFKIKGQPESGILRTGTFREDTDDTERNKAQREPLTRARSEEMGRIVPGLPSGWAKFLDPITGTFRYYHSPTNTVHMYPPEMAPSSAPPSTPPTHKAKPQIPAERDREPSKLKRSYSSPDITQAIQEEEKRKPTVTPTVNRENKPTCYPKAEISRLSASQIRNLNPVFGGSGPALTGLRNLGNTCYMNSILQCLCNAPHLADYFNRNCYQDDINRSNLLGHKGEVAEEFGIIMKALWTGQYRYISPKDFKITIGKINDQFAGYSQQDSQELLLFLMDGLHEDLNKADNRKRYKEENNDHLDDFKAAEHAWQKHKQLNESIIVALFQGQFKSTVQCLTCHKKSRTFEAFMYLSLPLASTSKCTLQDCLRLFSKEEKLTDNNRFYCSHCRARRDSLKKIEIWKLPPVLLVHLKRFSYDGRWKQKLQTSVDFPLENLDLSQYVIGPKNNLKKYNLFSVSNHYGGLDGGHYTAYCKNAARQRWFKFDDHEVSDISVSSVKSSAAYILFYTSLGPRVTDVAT
row,SMILES,IC50
1,O=c1[nH]cccc1NS(=O)(=O)c1ccc(F)cc1,> 40 µM (inactive)
2,O=C(/C=C/c1ccc2c(c1)OCO2)Nc1nc2n(n1)C(c1ccccc1)CC(=O)N2 (stereo unspecified),> 40 µM (inactive)
3,Cc1ccc(NC(=O)Cn2c(=O)n(CCC(=O)NCCc3ccccc3)c(=O)c3ccccc32)cc1C,> 40 µM (inactive)
4,Cc1ccc(NC(=O)Cn2cc(C(=O)c3ccccc3)c(=O)c3cc(C)ccc32)cc1,39.6 µM
5,COc1ccc(-c2nc(NCCCN3CCOCC3)c3ccccc3n2)cc1,> 40 µM (inactive)
6,Cc1ccc(NCc2cc3c(-c4cccc(F)c4)nn(-c4ccccc4)c3[nH]c2=O)cc1C,> 40 µM (inactive)
7,Cc1nn(-c2ccccc2)c2c1N=C1C(Cl)=CC(Cl)=CN1C21C(=O)Nc2ccccc21 (stereo unspecified),> 40 µM (inactive)
8,COC(=O)c1ccc(NC(=O)c2ccc(COc3cc(Cl)ccc3Cl)cc2)cc1,> 40 µM (inactive)
9,COc1ccc(-c2ccc3cc(C(=O)O)ccc3c2)cc1C12CC3CC(CC(C3)C1)C2,8.03 µM
10,COc1ccccc1NC(=O)c1nc(-c2cn(-c3cccc(F)c3)nn2)no1,> 40 µM (inactive)
11,Cn1cc(-c2nc(C(=O)Nc3ccc(C#N)cc3)cs2)c2cccnc21,> 40 µM (inactive)
12,CCOc1ccc(C(=O)CCC(=O)Nc2cccc(S(=O)(=O)Nc3cccc(Cl)c3)c2)cc1,> 40 µM (inactive)
13,COc1ccc([C@H]2Oc3cc(OC)cc(O)c3C(=O)[C@@H]2[C@@H]2C(=O)c3c(O)cc(O)cc3O[C@H]2c2ccc(OC)cc2)cc1,> 40 µM (inactive)
14,O=C(Nc1cccc(Br)c1)c1cc(-c2cccnc2)n[nH]1,33.6 µM
15,CCCCCCCCCCCC1=C(O)C(=O)C=C(O)C1=O,4.69 µM
16,CCCCCC(=O)C(CCCC)c1oc(=O)c(CCCC)c(O)c1CCCC (stereo unspecified),> 40 µM (inactive)
17,COc1ccc2c(c1)CCc1c-2nc2ccccc2c1N1CCOCC1,> 40 µM (inactive)
18,Oc1cccc2nc3c(O)cccc3nc12,8.85 µM
19,Cc1ccc(NC(=O)Cn2cncc(-c3nc(-c4ccccc4)cs3)c2=O)cc1F,> 40 µM (inactive)
20,O=C(COc1ccc(N2CC(C(=O)NCc3ccc4c(c3)OCO4)CC2=O)cc1)Nc1ccc(F)cc1 (stereo unspecified),> 40 µM (inactive)
21,N#Cc1ccc(NC(=O)Nc2cccn(Cc3c(F)cccc3Cl)c2=O)cc1,> 40 µM (inactive)
22,O=C1Cc2ccccc2C(=O)N1c1ccc2c(c1)OCO2,38.3 µM
23,Cc1ccc(NC(=O)Nc2ccc(C)n(CC(=O)Nc3cccc(C)c3)c2=O)cc1,> 40 µM (inactive)

row,SMILES,IC50
1,CC(C)(C)C(=O)[C@@H]1[C@@H](C(=O)c2ccc3c(c2)OCO3)[C@@]2(C(=O)Nc3ccccc32)[C@H]2c3ccccc3C=CN12,7.11 µM
2,N#Cc1cccnc1N1CCN(C(=O)Nc2cccc3ccccc23)CC1,> 40 µM (inactive)
3,Cc1ccc(C(=O)O)cc1NC(=O)C(Sc1cccc(NC(=O)c2ccccc2C)c1)c1ccccc1 (stereo unspecified),> 40 µM (inactive)
4,O=C(CCc1ccc(F)cc1)N1CCOC(CCc2cc(=O)[nH]cn2)C1 (stereo unspecified),> 40 µM (inactive)
5,CCN(c1ccc(NC(=O)COC(=O)c2cccnc2Nc2cccc(C(F)(F)F)c2)cc1)C(C)C,> 40 µM (inactive)
6,Cc1ccc(-n2nc(C)c3c2NC(=O)CC3C(=O)c2cc3ccccc3o2)cc1C (stereo unspecified),> 40 µM (inactive)
7,O=C(CC1C(=O)Nc2nc(-c3ccccc3)nn21)Nc1cccc2ccccc12 (stereo unspecified),> 40 µM (inactive)
8,O=C1c2ccccc2-c2nnc(-c3ccncc3)cc21,14 µM
9,O=C(NC(Cc1ccccc1)c1nc2ccccc2[nH]1)C1CC1 (stereo unspecified),24.4 µM
10,O=C(CC1C(=O)N(C2CCCC2)c2nc3ccccc3n21)Nc1ccccc1 (stereo unspecified),> 40 µM (inactive)
11,COc1ccc(-c2nc3n(n2)C(CC(=O)Nc2cccc4ccccc24)C(=O)N3)cc1 (stereo unspecified),> 40 µM (inactive)
12,Cc1cc(C)c2nc3c(cc2c1)CN(Cc1ccco1)C(=O)O3,> 40 µM (inactive)
13,N#Cc1ccccc1Cn1c(=O)n(CCCC(=O)NCc2ccc(F)cc2)c(=O)c2ccccc21,> 40 µM (inactive)
14,COc1cccc(CNC(=O)c2nnn(CC(=O)Nc3cc(C)ccc3C)c2N)c1,> 40 µM (inactive)
15,O=C(NCc1ccc(Br)cc1)c1cc(-c2cccnc2)n[nH]1,> 40 µM (inactive)
16,O=C(O)CCCCCN1C(=O)CC(c2ccc(Cl)cc2)CC1=O,31.8 µM
17,Cc1ccc(NC(=O)c2nnn(CC(=O)Nc3cccc(C)c3C)c2N)cc1C,> 40 µM (inactive)
18,Cc1ccnc(Nc2nc(-c3ccccc3)c3cc(Cl)ccc3n2)n1,> 40 µM (inactive)
19,Cc1ccccc1NC(=O)Nc1ccccc1OCc1cc(=O)n2cccc(C)c2n1,> 40 µM (inactive)
20,COc1cc(OC)cc(-c2nc(-c3cn(-c4cccc(F)c4)nn3)no2)c1,33 µM
21,Cc1ccc(N2CC(c3nnc(NC(=O)CCc4ccccc4)s3)CC2=O)cc1 (stereo unspecified),> 40 µM (inactive)
22,O=c1[nH]c2ccc(S(=O)(=O)Nc3ccc(O)c4ccccc34)cc2[nH]1,11.2 µM
23,NS(=O)(=O)c1ccc(CNC(=O)c2ccc(Cl)c(S(=O)(=O)Nc3cc(Cl)ccc3Cl)c2)cc1,> 40 µM (inactive)

row,SMILES,IC50
1,Cc1ccc(-n2nc(C)c3c2NC(=O)CC3C(=O)c2cc3ccccc3o2)cc1 (stereo unspecified),> 40 µM (inactive)
2,COc1cccc(NC(=O)C(Sc2cccc(NC(=O)c3ccccc3F)c2)c2ccccc2)c1 (stereo unspecified),> 40 µM (inactive)
3,O=C(Cn1c(=O)c2sccc2n(CC(=O)OCc2ccccc2)c1=O)NCc1ccccc1Cl,> 40 µM (inactive)
4,O=C(Cn1c(=O)[nH]c2ccccc2c1=O)NCc1ccccc1Cl,> 40 µM (inactive)
5,COc1cc(C2CC(=O)c3c([nH]c(C(=O)OCCOc4ccccc4)c3C)C2)cc(OC)c1OC (stereo unspecified),> 40 µM (inactive)
6,CC(=O)c1ccc(NC(=O)C2CC(=O)Nc3nc(SCc4ccccc4)nn32)cc1 (stereo unspecified),> 40 µM (inactive)
7,CCOc1ccc2[nH]c(=O)c(-c3nc4ccc(C)cn4c3NCc3ccccc3)cc2c1,> 40 µM (inactive)
8,O=C(Cn1c(=O)[nH]c2c(-c3ccccc3)c[nH]c2c1=O)NCc1ccccc1Cl,> 40 µM (inactive)
9,CC1CCCN(S(=O)(=O)c2ccc(-n3cnc(C(=O)NC4CC4)c3)nc2)C1 (stereo unspecified),> 40 µM (inactive)
10,Cc1ccc(C2c3[nH]c4ccccc4c3C[C@H]3C(=O)N(c4ccc(C(=O)NCCc5ccccc5)cc4)C(=O)N23)cc1 (stereo partly specified),> 40 µM (inactive)
11,CC(C)=CCc1c2c(c3occ(-c4ccc(O)cc4)c(=O)c3c1O)C=CC(C)(C)O2,> 40 µM (inactive)
12,COc1cc(CC(=O)Nc2ccccc2N2CCOCC2)cc(OC)c1OC,> 40 µM (inactive)
13,O=C(Cn1c(CNC(=O)c2ccccc2)nc2ccccc21)Nc1ccc(F)cc1,> 40 µM (inactive)
14,C=C1C=C(CCC(=O)O)C(=O)OC1/C=C/C=C/C (stereo unspecified),2.09 µM
15,COc1cc(C)cc2c1C(=O)c1c(cc(O)c(Cl)c1O)C2=O,3.33 µM
16,Cc1cc(Nc2cccc(Cl)c2)n2nc(-c3cccnc3)nc2n1,> 40 µM (inactive)
17,CCOC(=O)C1CCN(C(=O)c2ccc3c(c2)NC(=O)C2CCCN32)CC1 (stereo unspecified),2.02 µM
18,COc1ccccc1CN1CCC(c2cc(=O)[nH]c(-c3cccnc3)n2)CC1,> 40 µM (inactive)
19,COc1ccccc1Nc1ncc(C(=O)NCCc2ccc(Cl)cc2)c2ccccc12,> 40 µM (inactive)
20,CCCCCCC1CCC(O)CC(O)CC(O)CC(O)CC(O)CC(O)/C(C)=C/C=C\C=C/C=C/C=C/[C@H](O)[C@@H](C)OC1=O (stereo partly specified),> 40 µM (inactive)
21,COc1cc2cc3c(c(O)c2c(O)c1-c1c(OC)cc2cc4c(c(O)c2c1O)C(=O)OC1CC(C)OC41)C(=O)OC1CC(C)OC31 (stereo unspecified),0.972 µM
22,Cc1cc(C(=O)N2CCOCC2)c(C)n1-c1ccc(O)cc1,22.8 µM
23,COc1ccc(OC)c(NC(=O)c2cc(Cl)ccc2OC)c1,> 40 µM (inactive)

row,SMILES,IC50
1,COc1ccc(NC(=O)CC(=O)c2ccc([N+](=O)[O-])cc2)cc1S(=O)(=O)Nc1ccc(Br)cc1,> 40 µM (inactive)
2,Cc1c(C)n(-c2ccccc2)c2ncn(CC(=O)NCc3cccc(F)c3)c(=O)c12,> 40 µM (inactive)
3,CCOc1ccc(-c2nc(SCC(=O)Nc3cccc(C)c3)n3[nH]c(=O)cc3n2)cc1,> 40 µM (inactive)
4,CCc1ccc(NC(=O)Cn2c(=O)n(Cc3ccccc3)c(=O)c3nn(CC)cc32)cc1,> 40 µM (inactive)
5,COc1ccc(OC)c(NC2=NS(=O)(=O)C(c3cccc(Br)c3)=C2C)c1,> 40 µM (inactive)
6,CN(C)c1ccc(S(=O)(=O)N2CCCCC2)cc1NC(=O)COc1ccccc1,> 40 µM (inactive)
7,COc1ccc(-c2nc(Cn3nnc(C(=O)Nc4ccc(C)c(C)c4)c3N)c(C)o2)cc1,> 40 µM (inactive)
8,Cc1ccc(NC(=O)c2cc(-c3ccncc3)n[nH]2)cc1Cl,> 40 µM (inactive)
9,COc1ccc(CNc2ccc(C(=O)OCc3ccccc3F)cc2S(=O)(=O)Nc2cccc(OC)c2)cc1,> 40 µM (inactive)
10,CCOc1ccc(CCNC(=O)Cn2c(-c3ccc(F)cc3)cc(C(C)=O)c2C)cc1OCC,> 40 µM (inactive)
11,O=C(CC1C(=O)Nc2nc3ccccc3n21)Nc1cccc2ccccc12 (stereo unspecified),> 40 µM (inactive)
12,COc1cccc(NC(=O)C2C3C=CC4(O3)C2C(=O)N(CCc2ccc(Cl)cc2)C4C(=O)NC2CCCCC2)c1 (stereo unspecified),> 40 µM (inactive)
13,Cc1cccc(N2C(=O)/C(=C\c3cc(C#N)n(C)c3C)c3ccccc3C2=O)c1,> 40 µM (inactive)
14,COc1ccc2nc(N3CC(C(=O)Nc4ccc(C(N)=O)cc4)C3)sc2c1,> 40 µM (inactive)
15,Fc1ccccc1-c1nnc(C2(c3ccc4c(c3)OCO4)CCOCC2)o1,> 40 µM (inactive)
16,COC(=O)c1ccc2c(=O)n(CCCCCC(=O)NCCc3ccccc3Cl)c(=O)[nH]c2c1,> 40 µM (inactive)
17,Cc1cc(-c2ccc(S(=O)(=O)NCc3ccc(Cl)cc3)s2)on1,> 40 µM (inactive)
18,O=C(NC1CCCC1)C1CC(=O)N(c2cccc(-c3noc(-c4cccs4)n3)c2)C1 (stereo unspecified),> 40 µM (inactive)
19,Cc1ccc(-c2cc(C(F)F)n3ncc(C(=O)Nc4ccc(O)cc4)c3n2)cc1,> 40 µM (inactive)
20,COc1ccc(CCC(=O)Nc2nnc(C3CC(=O)N(c4ccccc4)C3)s2)cc1 (stereo unspecified),> 40 µM (inactive)
21,CC(=O)NS(=O)(=O)c1ccc(NC(=O)/C=C/c2cn(-c3ccccc3)nc2-c2ccccc2)cc1,29.4 µM
22,CCOc1cccc(-c2noc(-c3nn(-c4ccccc4)ccc3=O)n2)c1,> 40 µM (inactive)

# From PubChem BioAssay AID1645862 (Buhrlage Lab, Dana-Farber Cancer Institute and Novartis …, 2021)
